According to PMC9367601 (Cancers, 2022):

How the values were obtained:
[1] = molecular target: T1, Epidermal Growth Factor Receptor (EGFR), extracellular domain (EGFR-ECD) (Homo sapiens, UniProt P00533); assay: cell-based; design: DiscoverX PathHunter EGFR dimerization/activation assay, chemiluminescence
T1 construct: full-length EGFR in DiscoverX PathHunter enzyme-complementation cells, EGF-stimulated
Description: The inhibition of the EGFR dimerization assay was conducted using the PathHunter kit following the producer instructions and with cetuximab as a positive control. For IC50 determination, the selected compounds were tested at different concentration (range 0.1–100 µM) and the IC50 values were calculated by the four parameters logistic (4-PL) model. Evaluation was based on means from at least four independent experiments. The discovery of orally available small molecules able to impair the EGFR activation targeting the extracellular domain could be of great interest for cancer treatment. To pursue this goal, a suitable high/medium throughput screening method is required. In this respect, a commercially available kit (PathHunter® from DiscoverX©; San Francisco, CA, USA) for the screening of compounds able to prevent EGFR activation (either dimerization or autophosphorylation) has been developed in recent years. This assay measures the chemiluminescent signal produced as a consequence of ligand-induced dimerization/activation of EGFR [16]. Our interest in kinase inhibitors and the readily availability of such kit prompted us to start a campaign for the discovery of small molecules targeting the extracellular domain of EGFR.

[2] = molecular target: Epidermal Growth Factor Receptor (EGFR) (Homo sapiens, UniProt P00533); assay: PathHunter cell-based EGFR dimerization assay, dose-response
Sequence of Epidermal Growth Factor Receptor (EGFR) (P00533 25-1210): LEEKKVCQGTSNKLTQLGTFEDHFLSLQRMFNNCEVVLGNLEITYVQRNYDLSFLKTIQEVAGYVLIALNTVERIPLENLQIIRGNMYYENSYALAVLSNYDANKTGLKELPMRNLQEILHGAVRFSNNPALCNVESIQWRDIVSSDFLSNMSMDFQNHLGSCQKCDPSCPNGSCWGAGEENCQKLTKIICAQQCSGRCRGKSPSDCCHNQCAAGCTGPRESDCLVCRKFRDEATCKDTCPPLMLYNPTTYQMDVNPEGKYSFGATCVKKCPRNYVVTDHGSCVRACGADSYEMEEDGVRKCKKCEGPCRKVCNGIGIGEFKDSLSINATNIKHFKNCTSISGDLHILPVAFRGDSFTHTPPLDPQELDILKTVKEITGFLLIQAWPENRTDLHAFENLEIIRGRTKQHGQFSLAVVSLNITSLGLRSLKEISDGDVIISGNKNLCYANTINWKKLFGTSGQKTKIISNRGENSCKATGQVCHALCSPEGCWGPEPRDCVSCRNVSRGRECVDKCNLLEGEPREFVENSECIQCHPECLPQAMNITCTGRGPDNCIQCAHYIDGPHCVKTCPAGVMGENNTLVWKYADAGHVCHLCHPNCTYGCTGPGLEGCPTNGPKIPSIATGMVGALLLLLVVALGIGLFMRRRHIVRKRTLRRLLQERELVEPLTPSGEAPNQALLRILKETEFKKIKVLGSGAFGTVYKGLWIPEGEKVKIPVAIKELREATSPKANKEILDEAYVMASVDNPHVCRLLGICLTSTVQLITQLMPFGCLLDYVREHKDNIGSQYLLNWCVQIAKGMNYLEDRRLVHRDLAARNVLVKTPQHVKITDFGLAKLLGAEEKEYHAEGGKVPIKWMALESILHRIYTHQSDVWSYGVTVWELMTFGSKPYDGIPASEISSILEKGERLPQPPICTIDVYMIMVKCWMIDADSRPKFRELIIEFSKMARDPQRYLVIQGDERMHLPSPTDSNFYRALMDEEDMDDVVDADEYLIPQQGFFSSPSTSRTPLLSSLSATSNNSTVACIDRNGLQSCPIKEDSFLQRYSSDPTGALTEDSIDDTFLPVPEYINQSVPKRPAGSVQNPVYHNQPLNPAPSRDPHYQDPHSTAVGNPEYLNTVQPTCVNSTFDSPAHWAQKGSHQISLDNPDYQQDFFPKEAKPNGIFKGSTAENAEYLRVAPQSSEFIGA

T1 sequence (P00533 25-1210): as above

Row | SMILES | inhibition at 10 µM [1] [%] | inhibition at 50 µM [1] [%] | % inhibition @ 10 uM ([1]; inhibitor, % inhibition @ 10 uM, 10 µM) [%] | % inhibition @ 50 uM ([1]; inhibitor, % inhibition @ 50 uM, 50 µM) [%] | IC50 [2] [µM]
1 | COc1cccc(Nc2nc(N(C)C)c3cc(-c4c(Cl)cccc4Cl)c(=O)oc3n2)c1 [DSF033] | 0 | 12 ± 3 |  |  | 
2 | FC(F)(F)c1cccc(-c2cc(-c3ccccc3)ncn2)c1 [DSF026] | 0 | 0 |  |  | 
3 | O=[N+]([O-])c1cc(Cl)ccc1S(=O)(=O)N1CCCCC1 [DSF090] | 12 ± 2 | 19 ± 1 |  |  | 
4 | Cc1cccc(Nc2ncnc3oc(=O)c(-c4c(Cl)cccc4Cl)cc23)c1 [DSF038] | 0 | 24 ± 5 |  |  | 
5 | Cc1ccc(NC(=O)Nc2ccc(Nc3cc(-c4ccccc4)ncn3)cc2)cc1 [DSF056] | 0 | 22 ± 5 |  |  | 
6 | O=C(CCN1CCOCC1)Nc1ccc(NC(=O)CCN2CCOCC2)c2c1C(=O)c1ccccc1C2=O [DSF021] | 16 ± 4 | 30 ± 5 |  |  | 
7 | O=[N+]([O-])c1cc(Cl)ccc1S(=O)(=O)N1CCOCC1 [DSF089] | 20 ± 5 | 22 ± 4 |  |  | 
8 | COc1ccc([N+](=O)[O-])c(C2=NC(=Cc3ccc(NC(C)=O)cc3)C(=O)O2)c1 [DSF079] | 3 ± 1 | 41 ± 2 |  |  | 
9 | Cc1cccc(C)c1NS(=O)(=O)c1ccc(CC(=O)O)cc1 [DSF083] |  |  | 36 ± 4 | 49 ± 3 | 
10 | COc1ccc(/C=C2/N=C(c3ccccc3)OC2=O)cc1 [DSF076] | 25 ± 2 | 18 ± 4 |  |  | 
11 | COc1cccc(Nc2ncc(C(=O)O)c(O)n2)c1 [DSF058] | 12 ± 2 | 5 ± 5 |  |  | 
12 | O=C(NC(=O)c1ccccc1[N+](=O)[O-])Nc1cccc(Oc2ncc(Cl)cn2)c1 [DSF063] | 0 | 5 ± 5 |  |  | 
13 | CCOC(=O)c1ccc(NS(=O)(=O)c2ccc(Cl)cc2[N+](=O)[O-])cc1 [DSF087] | 2 ± 3 | 36 ± 4 |  |  | 
14 | CS(=O)(=O)Nc1ccc(NC(=O)c2ccc3c(c2)C(=O)c2c(NCCOCCN)ccc(NCCOCCN)c2C3=O)cc1 [DSF009] | 8 ± 1 | 48 ± 1 |  |  | 
15 | CC(=O)Nc1ccc(NC(=O)Cc2c(C)c3cc4c5c(oc4c(C)c3oc2=O)CCCC5)cc1 [DSF052] | 41 ± 4 | 49 ± 2 |  |  | 
16 | O=C(CN1CCOCC1)Nc1ccc(NC(=O)CN2CCOCC2)c2c1C(=O)c1c(O)ccc(O)c1C2=O [DSF020] | 33 ± 5 | 29 ± 1 |  |  | 
17 | CC(NC(=O)C(NC(=O)OCc1ccccc1)C(C)C)C(=O)OCCCCCNc1ccc(NCCCCCO)c2c1C(=O)c1ccccc1C2=O (stereo not drawn) [DSF013] | 0 | 0 |  |  | 
18 | CCc1cnc(Oc2cccc(NC(=O)NC(=O)c3ccccc3)c2)nc1 [DSF064] | 0 | 0 |  |  | 
19 | COCCOc1ccc2c(C)c(CCC(=O)Nc3ccc(C(=O)O)cc3)c(=O)oc2c1 [DSF048] | 9 ± 3 | 3 ± 4 |  |  | 
20 | COc1ccc2c(C)c(CCC(=O)Nc3ccc(C(=O)O)cc3)c(=O)oc2c1 [DSF045] | 0 | 0 |  |  | 
21 | ClCc1c2ccccc2c(CCl)c2ccccc12 [DSF003] | 35 ± 5 | 50 ± 1 |  |  | 
22 | CC(=O)Nc1ccc(C=C2N=C(c3ccc([N+](=O)[O-])cc3O)OC2=O)cc1 [DSF080] | 11 ± 5 | 28 ± 3 |  |  | 

Row | SMILES | inhibition at 10 µM [1] [%] | inhibition at 50 µM [1] [%] | % inhibition @ 10 uM ([1]; inhibitor, % inhibition @ 10 uM, 10 µM) [%] | % inhibition @ 50 uM ([1]; inhibitor, % inhibition @ 50 uM, 50 µM) [%] | IC50 [2] [µM]
23 | O=C1OC(c2ccccc2)=N/C1=C/c1cnc2ccccc2c1 [DSF074] | 10 ± 3 | 48 ± 2 |  |  | 
24 | Cc1c(CC(=O)Nc2ccc(NS(C)(=O)=O)cc2)c(=O)oc2c(C)c3oc4c(c3cc12)CCCC4 [DSF051] | 40 ± 1 | 50 ± 1 |  |  | 
25 | CCc1cnc(Oc2cccc(NC(=S)NC(=O)c3ccccc3)c2)nc1 [DSF065] | 0 | 22 ± 5 |  |  | 
26 | C=CCOc1cccc2c1C(=O)c1cccc(OCC=C)c1C2=O [DSF014] | 0 | 0 |  |  | 
27 | O=C(CN1CCCCC1)Nc1ccc(NC(=O)CN2CCCCC2)c2c1C(=O)c1ccccc1C2=O [DSF017] | 9 ± 2 | 14 ± 1 |  |  | 
28 | Nc1cccc(-c2cc(-c3ccc(C(=O)O)cc3)ncn2)c1 [DSF023] | 22 ± 1 | 8 ± 2 |  |  | 
29 | O=C(O)c1cccc2cc3c(C(=O)O)cccc3cc12 [DSF005] | 0 | 1 ± 4 |  |  | 
30 | Brc1cccc(-c2cc(-c3ccccc3)ncn2)c1 [DSF028] | 0 | 0 |  |  | 
31 | O=C(O)c1ccc(-c2ccc(-c3ccccc3)cc2O)cc1 [DSF029] | 1 ± 4 | 0 |  |  | 
32 | O=C1Nc2ccc(Br)cc2C1=Nc1cccc(C(F)(F)F)c1 [DSF-097] |  |  |  |  | 38.8 ± 3.6
33 | CSc1cccc(Nc2ccc3cc(-c4cccs4)c(=O)oc3n2)c1 [DSF032] | 0 | 3 ± 5 |  |  | 
34 | Cc1c(C)c2cc3c4c(oc3c(O)c2oc1=O)CCCC4 [DSF054] | 8 ± 4 | 46 ± 4 |  |  | 
35 | O=C(NC(=S)Nc1cccc(Oc2ncc(Cl)cn2)c1)c1ccccc1 [DSF062] | 9 ± 3 | 21 ± 2 |  |  | 
36 | O=C(CN1CCOCC1)Nc1ccc(NC(=O)CN2CCOCC2)c2c1C(=O)c1ccccc1C2=O [DSF018] | 16 ± 3 | 38 ± 5 |  |  | 
37 | CS(=O)(=O)Nc1ccc(NC(=O)c2ccc3c(c2)C(=O)c2c(NCCN4CCNCC4)ccc(NCCN4CCNCC4)c2C3=O)cc1 [DSF010] | 28 ± 3 | 34 ± 2 |  |  | 
38 | O=C(O)Cc1ccc(S(=O)(=O)Nc2ccccc2)cc1 [DSF081] | 21 ± 5 | 26 ± 1 |  |  | 
39 | O=C1Nc2ccccc2/C1=N\c1cccc(C(F)(F)F)c1 [DSF069] | 27 ± 5 | 56 ± 2 |  |  | 
40 | O=C1Nc2cc(Cl)c(F)cc2C1=Nc1cccc(C(F)(F)F)c1 [DSF-099] |  |  |  |  | 27.7 ± 4.5
41 | COc1ccc(OC)c(/N=C2/C(=O)Nc3ccc(Br)cc32)c1 [DSF070] | 20 ± 5 | 41 ± 1 |  |  | 
42 | O=C(O)COCC(=O)OCc1cc(O)c2c(c1)C(=O)c1cccc(O)c1C2=O [DSF011] | 9 ± 5 | 39 ± 1 |  |  | 
43 | CC(=O)Nc1ccc(/C=C2/N=C(c3cccc(C(=O)O)c3)OC2=O)cc1 [DSF071] | 0 | 0 |  |  | 
44 | O=C(CN1CCCCC1)Nc1ccc(NC(=O)CN2CCCCC2)c2c1C(=O)c1c(O)ccc(O)c1C2=O [DSF019] | 35 ± 5 | 33 ± 1 |  |  | 

Row | SMILES | inhibition at 10 µM [1] [%] | inhibition at 50 µM [1] [%] | % inhibition @ 10 uM ([1]; inhibitor, % inhibition @ 10 uM, 10 µM) [%] | % inhibition @ 50 uM ([1]; inhibitor, % inhibition @ 50 uM, 50 µM) [%] | IC50 [2] [µM]
45 | O=C(O)c1ccc(NS(=O)(=O)c2ccc(Cl)cc2[N+](=O)[O-])cc1O [DSF085] | 0 | 36 ± 5 |  |  | 
46 | O=C(O)Cc1ccc(/N=C2/C(=O)Nc3ccc(Br)cc32)cc1 [DSF068] | 37 ± 5 | 56 ± 4 |  |  | 
47 | Nc1ccc2cc3cc(N)ccc3cc2c1 [DSF001] | 0 | 0 |  |  | 
48 | COc1ccc2c(C)c(CCC(=O)Nc3ccc(C(=O)O)cc3)c(=O)oc2c1C [DSF044] | 0 | 0 |  |  | 
49 | O=C1c2ccccc2C(=O)c2c(NCCNCCO)ccc(F)c21 [DSF016] | 33 ± 5 | 25 ± 3 |  |  | 
50 | Cc1c(CCC(=O)Nc2cccc(C(=O)O)c2)c(=O)oc2nc3oc4c(c3cc12)CCCC4 [DSF049] | 35 ± 2 | 36 ± 3 |  |  | 
51 | Cc1oc2c(C)c3oc(=O)c(CC(=O)NCc4ccccc4Cl)c(C)c3cc2c1C [DSF055] | 46 ± 1 | 46 ± 5 |  |  | 
52 | O=C(O)c1ccc(-c2cc(-c3cccc(C(F)(F)F)c3)nc(O)n2)cc1 [DSF024] | 16 ± 1 | 5 ± 3 |  |  | 
53 | COc1cccc(Nc2nc(O)c3cc(-c4ccccc4)c(=O)oc3n2)c1 [DSF036] | 0 | 0 |  |  | 
54 | COc1cccc(Nc2nc(O)c3cc(-c4c(Cl)cccc4Cl)c(=O)oc3n2)c1 [DSF034] | 14 ± 2 | 0 |  |  | 
55 | COc1cccc(Nc2nc(O)c3cc(-c4cc(OC)cc(OC)c4)c(=O)oc3n2)c1 [DSF035] | 0 | 0 |  |  | 
56 | CC(=O)c1cccc2cc3c(C(C)=O)cccc3cc12 [DSF002] | 0 | 0 |  |  | 
57 | O=C(O)c1ccc(NS(=O)(=O)c2ccc(Cl)cc2[N+](=O)[O-])cc1 [DSF084] | 19 ± 2 | 29 ± 3 |  |  | 
58 | COC(=O)Cc1c(C)c2ccc(O)cc2oc1=O [DSF042] | 0 | 0 |  |  | 
59 | COc1cccc(Nc2ccc3cc(-c4cccs4)c(=O)oc3n2)c1 [DSF031] | 0 | 19 ± 1 |  |  | 
60 | O=c1oc2ncnc(Nc3cccc(-c4ccccc4)c3)c2cc1-c1c(Cl)cccc1Cl [DSF037] | 12 ± 4 | 40 ± 5 |  |  | 
61 | CN(C)CCNc1ccc(F)c2c1C(=O)c1ccccc1C2=O [DSF015] | 39 ± 4 | 48 ± 1 |  |  | 
62 | CC(=O)n1cc(/C=C2/N=C(c3ccccc3)OC2=O)c2ccccc21 [DSF077] | 7 ± 1 | 39 ± 1 |  |  | 
63 | O=C(O)Cc1ccc(/N=C2/C(=O)Nc3ccccc32)cc1 [DSF067] | 42 ± 5 | 42 ± 1 |  |  | 
64 | c1ccc2c(CN3CCCCC3)c3ccccc3c(CN3CCCCC3)c2c1 [DSF007] | 16 ± 4 | 16 ± 4 |  |  | 
